Key:
Phoenix Eco cells [1] = tested on: Phoenix Eco cells
Phoenix Eco cells [2] = experiment: Cellular uptake of fluorescein-labeled oligomers; assay type: cell-based
[3] = estimated; 5 µM oligomer, 37°C, DMEM/10% FBS; denaturing gel, densitometry
Phoenix Eco cells [4] = experiment: Live-cell confocal microscopy, intracellular localization; assay type: cell-based

CCN(CC)CCCC(C)Nc1ccnc2cc(Cl)ccc12 (centres unmarked) [chloroquine]
cell viability (Phoenix Eco cells [1]): 80–85%

pHypNA TCACTCAACACTCAC-Flu: fluorescein-labeled trans-L pHypNA oligomer, sequence TCACTCAACACTCAC-Flu (pHypNA backbone; fluorescein)
time of maximum uptake (Phoenix Eco cells [2]; in the presence of LFA): 20 to 24 h | fluorescence in treated cells (in words) (Phoenix Eco cells [2]; in the presence of Lipofectamine-2000 (LFA), oligomer or its duplex with CT-ODN, after 4 h already): high level of fluorescence | half-life [3]: ~72 h | intracellular distribution (in words) (Phoenix Eco cells [4]): evenly distributed in the cytoplasm with preferential staining of the nucleus

— publication PMC1456331 (Nucleic Acids Research, 2006)
